# Experimental data: US11155558B2, “Dual mode of action soluble guanylate cyclase activators and phosphodiesterase inhibitors and uses thereof” (TOPADUR PHARMA AG, priority 2017, dated 2021)
# Columns and labels:
# [1] = tested on: Human Pulmonary Artery Smooth Muscle Cells (hPASMC); experiment: Measurements of cGMP in human pulmonary artery smooth muscle cells (hPASMC); assay type: cell-based; conditions: 30 min incubation, 0.1 pM-1 uM, compared to sildenafil, mirodenafil or compound 5 (FIG. 3)
# Procedure: Human Pulmonary Artery Smooth Muscle Cells (hPASMC) were purchased from Clonetics™ Lonza (Lonza, reference number CC-2581) and cultured in Clonetics™ smooth muscle growth medium (Clonetics™ SmGM™-2 with BulletKit™ growth factor supplements (Lonza, reference number CC-3182) at 37° C. in 5% CO2. Culture medium was replaced each 48 hours. Cells were grown in 75 cm^2 culture plates. 48 h before the experiments, cells were trypsinized (Trypsin kit One ReagentPack™ (CC-5034), Lonza) and plated in 96 well plates precoated with collagen I at 10000 cells per well. 24 h before the experiments culture medium was replaced by serum-reduced (0.5% FBS) medium. […]
# Measurements of intracellular cGMP were performed using the Amersham cGMP EIA System (GE Healthcare, RPN226) following the instructions of the manufacturer. […] Briefly, incubations were terminated by adding Amersham's lysis buffer 1 and cells left for 10 min under agitation to ensure complete lysis. cGMP in samples was then acetylated using triethylamine and acetic anhydride and determined by a competitive ELISA. The ELISA is based on the competition between acetylated cGMP in cell culture lysates and a peroxidase-labelled cGMP conjugate for limited binding sites on a cGMP specific antiserum immobilized on pre-coated 96 well MTP. cGMP was determined based on a standard curve. […]
# [2] = molecular target: PDE5 enzyme isolated from human platelets (Homo sapiens (Human), UniProt O76074); experiment: PDE5 assay (Example 109), formation of 5′GMP from cGMP, SPA;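 also: tritiated 5′GMP counted by scintillation after SPA bead capture, enzyme reaction run 60 min at 22 °C, basal control is the mixture without enzyme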
# Procedure: Evaluation of the effects of compounds of the present invention on the activity of the human phosphodiesterase-5 quantified by measuring the formation of 5′GMP from cGMP using PDE5 enzyme isolated from human platelets.
# Thereafter, the reaction is initiated by addition of the enzyme and the mixture is incubated for 60 min at 22° C.
# For basal control measurements, the enzyme is omitted from the reaction mixture. Following incubation SPA beads are added. After 20 min at 22° C. under shaking, the amount of [3H]5′GMP is quantified with a scintillation counter (Topcount, Packard).
# The standard inhibitory reference compound is dipyridamole, which is tested in each experiment at several concentrations to obtain an inhibition curve from which its IC50 value is calculated.
# [3] = Measurements of human plasma protein binding; assay type: in vitro ADME
# Procedure: An aliquot of 200 μL of human plasma containing test compound was spiked into donor well (red chamber) of the insert. 350 μL of PBS was spiked into receiver well (white chamber) of the insert.
# The samples were matrix equilibrated with opposite matrix (25 μL of plasma/buffer sample was matched with 25 μL of blank buffer/plasma). Matrix matched samples were precipitated with 200 μL of acetonitrile containing internal standard. Samples were vortexed at 1000 rpm for 5 min and centrifuged at 4000 rpm for 10 min. Supernatant was separated, diluted 2 fold with water and analysed in LC-MS/MS. TO control samples were processed immediately after the preparation of plasma working stock solutions. These samples serves as a measure for calculating the percentage recovery of test compounds.
structure (smiles),measurement,setting,value
"CCCOc1ccc(S(=O)(=O)N2CCC(CCO[N+](=O)[O-])CC2)cc1-c1nc2c(CCC)cn(CC)c2c(=O)[nH]1 [Compound 1b, 2-(1-((3-(5-ethyl-4-oxo-7-propyl-4,5-dihydro-3H-pyrrolo[3,2-d]pyrimidin-2-yl)-4-propoxyphenyl)sulfonyl)piperidin-4-yl)ethyl nitrate]",efficacy in increasing intracellular cGMP level,[1],significantly higher efficacy in increasing cGMP level
same,IC50,[2],> 10 nM
same,% inhibition at 5.0E−09 M,"[2]; percent inhibition of control enzyme activity at 5.0E−09 M, assay of Example 109",12.4%
same,% Bound in Plasma,[3],99.95%
same,fraction unbound,[3],0.0005
same,recovery,[3]; human,100%
